Test results as given in ChEMBL document CHEMBL3774347, “Docking and Linking of Fragments To Discover Jumonji Histone Demethylase Inhibitors” (J Med Chem, 2016).

Columns and labels:
[1] = molecular target: T1, Lysine-specific demethylase 4C (Homo sapiens, UniProt Q9H3R0); assay: Inhibition of N-terminal His6-tagged KDM4C (1 to 352 residues) (unknown origin) expressed in Escherichia coli Rosetta 2(DE3)pLysS using biotinylated histone H3 (1 to 21 residues) lysine 9 trimethylated peptide/50 uM alpha-ketoglutarate as substrate/cofactor measured after 45 mins by TR-FRET assay; details: read-out: IC50
T1 sequence (Q9H3R0 whole entry): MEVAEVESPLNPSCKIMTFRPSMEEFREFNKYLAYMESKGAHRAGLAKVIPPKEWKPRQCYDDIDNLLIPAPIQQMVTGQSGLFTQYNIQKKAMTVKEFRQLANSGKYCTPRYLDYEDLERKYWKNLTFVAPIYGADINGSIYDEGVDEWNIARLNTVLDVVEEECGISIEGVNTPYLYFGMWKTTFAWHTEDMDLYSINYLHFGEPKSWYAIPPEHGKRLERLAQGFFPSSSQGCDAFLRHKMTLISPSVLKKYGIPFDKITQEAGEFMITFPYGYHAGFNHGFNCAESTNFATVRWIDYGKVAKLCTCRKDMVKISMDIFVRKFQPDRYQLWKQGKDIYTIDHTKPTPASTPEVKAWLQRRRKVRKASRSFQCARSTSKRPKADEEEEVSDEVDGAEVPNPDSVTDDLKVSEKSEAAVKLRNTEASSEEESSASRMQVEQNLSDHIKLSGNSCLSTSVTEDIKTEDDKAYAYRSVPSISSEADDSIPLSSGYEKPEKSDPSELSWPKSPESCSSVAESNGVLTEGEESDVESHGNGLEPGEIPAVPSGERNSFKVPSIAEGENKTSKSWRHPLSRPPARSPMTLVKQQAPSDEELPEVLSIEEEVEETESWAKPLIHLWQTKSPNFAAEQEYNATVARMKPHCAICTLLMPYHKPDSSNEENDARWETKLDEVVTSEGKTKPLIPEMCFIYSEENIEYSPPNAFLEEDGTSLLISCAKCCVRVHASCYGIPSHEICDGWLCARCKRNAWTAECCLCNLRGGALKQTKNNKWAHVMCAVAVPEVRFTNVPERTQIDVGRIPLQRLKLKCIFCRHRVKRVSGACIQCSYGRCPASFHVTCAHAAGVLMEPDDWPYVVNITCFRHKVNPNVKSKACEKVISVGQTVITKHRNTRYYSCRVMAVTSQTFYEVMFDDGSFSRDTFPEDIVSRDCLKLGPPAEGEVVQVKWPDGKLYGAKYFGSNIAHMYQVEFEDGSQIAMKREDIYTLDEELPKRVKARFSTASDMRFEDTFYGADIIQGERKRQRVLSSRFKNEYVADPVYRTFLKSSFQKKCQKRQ

[2] = molecular target: Lysine-specific demethylase 5A (Homo sapiens, UniProt P29375); assay: Inhibition of KDM5A (1 to 797 residues) (unknown origin) expressed in insect sf21 cells using ARTK(Me3)QTARKSTGGKAPRK peptide/ 100 uM alpha-ketoglutarate as substrate/cofactor incubated for 45 mins by MALDI assay
Lysine-specific demethylase 5A, sequence (P29375 whole entry, the tested form may be a part): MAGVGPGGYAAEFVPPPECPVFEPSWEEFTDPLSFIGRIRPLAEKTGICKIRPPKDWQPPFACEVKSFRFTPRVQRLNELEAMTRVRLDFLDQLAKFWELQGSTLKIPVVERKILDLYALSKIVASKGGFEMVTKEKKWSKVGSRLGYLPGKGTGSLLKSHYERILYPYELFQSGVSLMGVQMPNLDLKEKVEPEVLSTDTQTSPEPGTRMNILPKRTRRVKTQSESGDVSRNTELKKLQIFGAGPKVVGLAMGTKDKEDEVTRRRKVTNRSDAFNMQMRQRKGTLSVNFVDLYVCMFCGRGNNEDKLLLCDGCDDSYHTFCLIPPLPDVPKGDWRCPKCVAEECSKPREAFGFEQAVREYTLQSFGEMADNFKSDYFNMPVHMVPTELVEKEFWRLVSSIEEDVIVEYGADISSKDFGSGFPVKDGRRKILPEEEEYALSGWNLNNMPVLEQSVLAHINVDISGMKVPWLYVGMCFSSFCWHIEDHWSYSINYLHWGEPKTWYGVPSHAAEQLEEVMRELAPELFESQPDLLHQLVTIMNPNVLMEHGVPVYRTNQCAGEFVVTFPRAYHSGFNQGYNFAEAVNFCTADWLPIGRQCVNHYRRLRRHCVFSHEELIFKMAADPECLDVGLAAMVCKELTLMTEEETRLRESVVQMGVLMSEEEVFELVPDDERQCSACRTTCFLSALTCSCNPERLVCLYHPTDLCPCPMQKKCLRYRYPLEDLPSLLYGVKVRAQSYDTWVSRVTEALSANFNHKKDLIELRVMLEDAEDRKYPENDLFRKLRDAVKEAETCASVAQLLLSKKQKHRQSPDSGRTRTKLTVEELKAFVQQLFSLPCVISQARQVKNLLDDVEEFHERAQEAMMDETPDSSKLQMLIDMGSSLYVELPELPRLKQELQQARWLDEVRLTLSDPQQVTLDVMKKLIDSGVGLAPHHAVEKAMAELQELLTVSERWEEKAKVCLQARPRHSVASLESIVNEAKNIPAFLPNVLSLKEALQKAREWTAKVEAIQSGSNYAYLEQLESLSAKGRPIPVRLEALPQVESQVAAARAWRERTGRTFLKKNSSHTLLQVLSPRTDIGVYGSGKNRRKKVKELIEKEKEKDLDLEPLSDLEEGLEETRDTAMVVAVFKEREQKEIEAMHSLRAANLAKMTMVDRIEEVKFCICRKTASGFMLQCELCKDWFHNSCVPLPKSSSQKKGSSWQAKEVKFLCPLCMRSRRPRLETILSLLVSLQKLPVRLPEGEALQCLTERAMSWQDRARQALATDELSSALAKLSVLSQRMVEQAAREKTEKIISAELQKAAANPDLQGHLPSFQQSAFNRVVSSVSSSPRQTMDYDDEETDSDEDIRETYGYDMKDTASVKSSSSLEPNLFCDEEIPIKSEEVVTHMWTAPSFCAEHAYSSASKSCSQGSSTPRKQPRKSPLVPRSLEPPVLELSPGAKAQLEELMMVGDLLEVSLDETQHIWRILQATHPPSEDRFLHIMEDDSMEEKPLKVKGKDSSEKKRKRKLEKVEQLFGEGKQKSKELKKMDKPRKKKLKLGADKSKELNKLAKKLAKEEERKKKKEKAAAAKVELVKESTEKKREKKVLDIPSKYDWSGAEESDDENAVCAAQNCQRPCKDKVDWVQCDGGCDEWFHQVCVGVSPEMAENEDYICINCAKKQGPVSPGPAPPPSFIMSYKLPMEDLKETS

[3] = molecular target: T2, Lysine-specific demethylase 4D (Homo sapiens, UniProt Q6B0I6); assay: Inhibition of KDM4D (unknown origin) expressed in Escherichia coli using H3 (1 to 21 residues) K9Me3-GGK-Biotin KDM4 Cognate Ligand/10 uM alpha-ketoglutarate as substrate/cofactor preincubated for 5 mins followed by substrate addition measured after 20 mins by alphascreen assay
T2 sequence (Q6B0I6 whole entry): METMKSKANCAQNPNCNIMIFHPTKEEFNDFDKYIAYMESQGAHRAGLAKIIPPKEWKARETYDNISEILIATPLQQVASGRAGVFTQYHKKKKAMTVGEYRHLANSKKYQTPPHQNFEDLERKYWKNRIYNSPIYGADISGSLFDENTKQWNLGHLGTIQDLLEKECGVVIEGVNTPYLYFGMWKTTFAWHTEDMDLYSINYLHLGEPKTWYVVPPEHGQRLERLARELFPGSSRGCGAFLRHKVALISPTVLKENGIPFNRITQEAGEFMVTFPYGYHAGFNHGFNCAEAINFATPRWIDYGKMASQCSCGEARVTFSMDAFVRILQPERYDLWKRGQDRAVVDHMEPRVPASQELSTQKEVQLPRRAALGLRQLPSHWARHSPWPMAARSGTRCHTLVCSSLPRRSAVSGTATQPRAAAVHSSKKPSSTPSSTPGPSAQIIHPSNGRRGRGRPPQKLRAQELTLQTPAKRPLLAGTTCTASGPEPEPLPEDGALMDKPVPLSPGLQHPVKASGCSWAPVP

Q: What does the source list for COCC(=O)Nc1ccc(O)c(-c2cc(C(=O)O)ccn2)c1?
A: IC50 [1]: 7.4 µM; IC50 [2]: 180 µM; IC50 [3]: 4.2 µM

Q: Which results are given for COc1cccc(CC(=O)Nc2ccc(O)c(-c3cc(C(=O)O)ccn3)c2)c1?
A: IC50 [1]: 1.5 µM; IC50 [2]: 52 µM; IC50 [3]: 11 µM

Q: For O=C(O)c1ccnc(-c2cc(NC(=O)c3ccc(O)cc3)ccc2O)c1, which IC50 [1] is on record?
A: The IC50 was 2.6 µM.

Q: What about the IC50 [2] of the same compound?
A: The IC50 was 45 µM.

Q: And the IC50 [3]?
A: Its IC50 is 13 µM.

Q: How did the IC50 [1] turn out when CC(=O)Nc1ccc(O)c(-c2cc(C(=O)O)ccn2)c1 was run?
A: The IC50 was 40 µM.

Q: And the IC50 [2]?
A: The IC50 was 240 µM.

Q: What about the IC50 [3] of the same compound?
A: Its IC50 is 14 µM.

Q: Which IC50 [1] does the source give for Cc1cc(C(=O)Nc2ccc(O)c(-c3cc(C(=O)O)ccn3)c2)no1 here?
A: The IC50 was 5 µM.

Q: And the IC50 [2]?
A: Its IC50 is 23 µM.

Q: And the IC50 [3]?
A: The IC50 was 9.2 µM.
